Source: patent US9896441B2 (Lycera Corporation, priority 2014, dated 2018)

Legend:
RORγ-LBD = target: T1, RORγ-LBD (Homo sapiens, UniProt P51449); experiment: RORγ-Ligand Binding Domain (LBD) TR-FRET Assay; assay type: biochemical; conditions: for TR-FRET Assay Max Response: maximum response;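 as to TR-FRET Assay Max Response: 665/615 nm signal ratio set to 100 without ursolic acid or test compound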
T1 construct: made in house; host or cells: SF9 cells (baculovirus); used as diluted lysate
T1 sequence (P51449 269-508 limits assumed): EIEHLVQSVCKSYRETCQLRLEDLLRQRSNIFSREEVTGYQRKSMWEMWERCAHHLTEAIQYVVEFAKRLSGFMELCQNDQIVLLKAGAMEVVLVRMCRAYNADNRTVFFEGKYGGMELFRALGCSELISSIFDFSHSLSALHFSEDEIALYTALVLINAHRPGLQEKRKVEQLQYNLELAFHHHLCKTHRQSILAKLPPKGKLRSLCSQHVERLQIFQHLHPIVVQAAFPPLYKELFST
How it was run: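 His-tagged RORγ-LBD from SF9 baculovirus lysate, ~3 nM final, in 50 mM Tris pH 7.0, 50 mM KCl, 1 mM EDTA, 0.1 mM DTT, 0.01% BSA. Biotinylated SRC1 LXXLL peptide at 200 nM final with 2 μM ursolic acid; TR-FRET read-out, 1% DMSO final.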

Gal4-RORγ-LBD = target: T2, Gal4-RORγ-LBD (Homo sapiens, UniProt P51449); experiment: Gal4-RORγ Luciferase Reporter Assay in HEK-293T Cells; assay type: cell-based; conditions: HEK-293 cells, luciferase reporter; for Gal4-RORγ Assay Max Response: maximum response
T2 construct: expressed in transfected cells
T2 sequence (P51449 269-508 limits assumed): T1 sequence (P51449 269-508 limits assumed)
How it was run: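 HEK-293 cells were co-transfected with Gal4-RORγ-LBD and a Gal4-luciferase reporter, then exposed overnight at 37 °C to compounds with […] ursolic acid present (0.2% DMSO). Luminescence was read with One-Glo after 10 min at RT, untreated signal was set as 100, and Max Response was taken as the upper plateau of a 4-parameter logistic fit.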

Row | SMILES | EC50 (RORγ-LBD; RORγ-LBD TR-FRET assay) | EC50 (Gal4-RORγ-LBD; in presence of ursolic acid) | EC50 (RORγ-LBD; RORγ-LBD TR-FRET) | EC50 (Gal4-RORγ-LBD; with ursolic acid) | TR-FRET Assay Max Response (RORγ-LBD; RORγ-LBD TR-FRET assay) | Gal4-RORγ Assay Max Response (Gal4-RORγ-LBD; in presence of ursolic acid)
1 | CCOc1ncc(C(F)(F)F)cc1S(=O)(=O)N1C[C@H](CCC(=O)O)Oc2ccc(/C=C(\C)c3c(Cl)cccc3C(F)(F)F)cc21 [Example 77, (S,E)-3-(6-(2-(2-Chloro-6-(trifluoromethyl)phenyl)prop-1-en-1-yl)-4-((2-ethoxy-5-(trifluoromethyl)pyridin-3-yl)sulfonyl)-3,4-dihydro-2H-benzo[b][1,4]oxazin-2-yl)propanoic acid] | – | – | < 500 nM | 500 to 5000 nM | – | –
2 | C/C(=C\c1ccc2c(c1)N(S(=O)(=O)c1ccc(F)c(C3CC3)c1)C[C@H](CCC(=O)O)O2)c1c(F)cccc1Cl [Example 86C, (S,E)-3-(6-(2-(2-chloro-6-fluorophenyl)prop-1-en-1-yl)-4-((3-cyclopropyl-4-fluorophenyl)-sulfonyl)-3,4-dihydro-2H-benzo[b][1,4]oxazin-2-yl)-propanoic acid] | – | – | < 500 nM | < 500 nM | – | –
3 | Cc1cccc2c1c(/C=C/c1ccc3c(c1)N(S(=O)(=O)c1cccc(C(F)(F)F)c1)C[C@H](CCC(=O)O)O3)nn2C [Example 89BN, (S,E)-3-(6-(2-(1,4-dimethyl-1H-indazol-3-yl)vinyl)-4-((3-(trifluoromethyl)phenyl)sulfonyl)-3,4-dihydro-2H-benzo[b][1,4]oxazin-2-yl)propanoic acid] | – | – | < 500 nM | 500 to 5000 nM | – | –
4 | C/C(=C\c1ccc2c(c1)N(S(=O)(=O)c1ccc(F)c(Cl)c1)C[C@H](CCC(=O)O)O2)c1c(F)cccc1Cl [Example 86E, (S,E)-3-(4-((3-chloro-4-fluorophenyl)sulfonyl)-6-(2-(2-chloro-6-fluorophenyl)prop-1-en-1-yl)-3,4-dihydro-2H-benzo[b][1,4]oxazin-2-yl)propanoic acid] | – | – | < 500 nM | 500 to 5000 nM | – | –
5 | Cn1nccc1/C=C/c1ccc2c(c1)N(S(=O)(=O)c1cccc(C(F)(F)F)c1)C[C@H](CCC(=O)O)O2 [Example 89CI, (S,E)-3-(6-(2-(1-methyl-1H-pyrazol-5-yl)vinyl)-4-((3-(trifluoromethyl)phenyl)sulfonyl)-3,4-dihydro-2H-benzo[b][1,4]-oxazin-2-yl)propanoic acid] | – | – | > 10000 nM | > 10000 nM | – | –
6 | COC(=O)CC[C@H]1CN(S(=O)(=O)c2cccc(OC(F)F)c2)c2cc(/C=C/c3ccc(C)cc3)ccc2O1 [Example 89BF, (S,E)-methyl 3-(4-((3-(difluoromethoxy)phenyl)sulfonyl)-6-(4-methylstyryl)-3,4-dihydro-2H-benzo[b][1,4]oxazin-2-yl)propanoate] | – | – | 500 to 5000 nM | > 10000 nM | – | –

Second part, led by results:

Row | EC50 (RORγ-LBD; RORγ-LBD TR-FRET assay) | EC50 (Gal4-RORγ-LBD; in presence of ursolic acid) | EC50 (RORγ-LBD; RORγ-LBD TR-FRET) | EC50 (Gal4-RORγ-LBD; with ursolic acid) | SMILES | TR-FRET Assay Max Response (RORγ-LBD; RORγ-LBD TR-FRET assay) | Gal4-RORγ Assay Max Response (Gal4-RORγ-LBD; in presence of ursolic acid)
7 | < 500 nM | < 500 nM | – | – | COC(=O)CO[C@@H]1Cc2ccc(/C=C(\C)c3c(F)cccc3Cl)cc2N(S(=O)(=O)c2cccc(C(F)(F)F)c2)C1 [Example 173D, methyl (R,E)-2-((7-(2-(2-chloro-6-fluorophenyl)prop-1-en-1-yl)-1-((3-(trifluoromethyl)-phenyl)sulfonyl)-1,2,3,4-tetrahydroquinolin-3-yl)oxy)acetate] | ** (a value in the range of greater than 90 to 150) | ** (a value in the range of greater than 90 to 150)
8 | < 500 nM | 500 to 5000 nM | – | – | COc1cc(S(=O)(=O)N2c3cc(/C=C/c4c(F)cccc4Cl)ccc3C[C@H](O)[C@H]2C)ccc1F (racemic) [Example 174, rac-(2R,3S)-7-((E)-2-Chloro-6-fluorostyryl)-1-((4-fluoro-3-methoxyphenyl)sulfonyl)-2-methyl-1,2,3,4-tetrahydroquinolin-3-ol] | ** (a value in the range of greater than 90 to 150) | * (a value in the range of 30 to 90)
9 | – | – | < 500 nM | 500 to 5000 nM | COC(=O)CC[C@H]1CN(S(=O)(=O)c2ccc(F)c(OC(F)F)c2)c2cc(/C=C/c3c(F)cccc3Cl)ccc2O1 [Example 89CU, methyl (S,E)-3-(6-(2-chloro-6-fluorostyryl)-4-((3-(difluoromethoxy)-4-fluorophenyl)-sulfonyl)-3,4-dihydro-2H-benzo[b][1,4]oxazin-2-yl)propanoate] | – | –
